# Experimental data reported in article PMC2612642 (Antiviral research, 2008).
# Where two headings read alike, the source gives them in different places. Marks after values point to notes of the source that are not given here.
# Tests used:
# TC-83 strain of VEEV [1] = assay type: cell-based, Venezuelan equine encephalitis virus
# TC-83 strain of VEEV [2] = assay type: cell-based, Venezuelan equine encephalitis virus; remark: listed apart in the source
# Vero cells [3] = tested on: Vero cells
# TC-83 strain of VEEV [4] = assay type: cell-based, Venezuelan equine encephalitis virus; remark: listed apart in the source
# intracellular CTP pools = assay type: cell-based
# TC-83 VEEV [5] = experiment: microbe, parasite or virus in culture; assay type: cell-based, Venezuelan equine encephalitis virus
# TrD VEEV = tested on: TrD VEEV; design: species or system ICR mice; settings: mouse, in vivo
# Vero cells [6] = tested on: Vero cells; remark: listed apart in the source
# TC-83 VEEV [7] = tested on: TC-83 VEEV; design: species or system C3H/HeN mice; settings: mouse, in vivo
# TC-83 VEEV [8] = tested on: TC-83 VEEV; design: species or system C3H/HeN mice; settings: mouse, in vivo; remark: listed apart in the source
# [9] = in vivo, iv; cited from earlier work
# TC-83 VEEV [10] = experiment: microbe, parasite or virus in culture; assay type: cell-based; settings: Venezuelan equine encephalitis virus, read-out: EC50 (neutral red uptake)
Molecule,EC50 (NR) (TC-83 strain of VEEV [1]),EC50 (vis) (TC-83 strain of VEEV [2]),IC50 (Vero cells [3]),EC90 (TC-83 strain of VEEV [4]),IC50 (neutral red uptake) (Vero cells [3]),IC50 (visual inspection) (Vero cells [6]),also measured
"Nc1ccn([C@H]2C[C@@H](CO)[C@H](O)[C@@H]2O)c(=O)n1 (racemic) [(+/-)-carbodine, Carbocyclic cytidine]",0.70 µg/mL,0.68 µg/mL,>100 µg/mL,1.7 µg/mL,–,–,–
Nc1ccn([C@H]2C[C@@H](CO)[C@H](O)[C@@H]2O)c(=O)n1 [(+)-carbodine],>100 µg/mL,>100 µg/mL,>100 µg/mL,>100 µg/mL,–,–,Activity against TC-83 vaccine strain of VEEV (TC-83 strain of VEEV [1]): no activity; Intracellular CTP reduction (intracellular CTP pools): not reduced
Nc1ccn([C@@H]2C[C@H](CO)[C@@H](O)[C@H]2O)c(=O)n1 [(-)-carbodine],0.2 ± 0.0 µg/mL,0.3 ± 0.2 ^f μg/ml,>100 µg/mL,0.4 ± 0.2 µg/mL,>100 µg/mL,>100 µg/mL,"Cytidine concentration at which activity was completely abolished (TC-83 VEEV [5]): 10 to 32 µg/mL; Survival (TrD VEEV): all animals died; Mean time to death vs placebo (TrD VEEV; ip): slight, but significant, extension; Mortality rate (TC-83 VEEV [7]): 50%; Reduction in intracellular CTP (intracellular CTP pools): 65%; Reduction of brain virus titer vs placebo (TC-83 VEEV [8]): 10 fold"
Nc1ccn([C@@H]2C=C(CO)[C@@H](O)[C@H]2O)c(=O)n1 [Cyclopentenyl cytosine],–,–,–,–,–,–,Adverse effects in human patients with solid tumors [9]: hypotension and death
"Nc1ccn([C@@H]2O[C@H](CO)[C@@H](O)[C@H]2O)c(=O)n1 [Cytidine, cytidine, reference compound]",–,–,–,–,–,–,"EC50 (TC-83 VEEV [5]; Venezuelan equine encephalitis virus, read-out: EC50 (visual inspection)): > 100 µg/mL; EC50 (TC-83 VEEV [10]): > 100 µg/mL"
Interferon alfacon-1,0.05 µg/mL,0.06 µg/mL,>10 µg/mL,0.06 µg/mL,>10 µg/mL,>10 µg/mL,EC50 (visual inspection) (TC-83 VEEV [5]): 0.06 µg/mL
